# Test results published in ChEMBL document CHEMBL5393442, “Combined inhibition of amino acid transporters for inhibiting human plasmacytoid dendritic cell activity during autoimmunity” (2022).
# pIC50: −log10 of the molar value. Active and inactive are the calls of the source. No cut-off for these calls is given here.
# Tests used:
# [1] = tested on: Plasmacytoid dendritic cell; assay: Inhibition of mTORC1/mTORC2 in TLR9-activated human plasmacytoid dendritic cells at 1 uM assessed as decrease in CpG-A stimulated SLC7A11 expression; type: cell-based
# [2] = target: T1, Cystine/glutamate transporter (Homo sapiens, UniProt Q9UPY5); assay: Inhibition of XCT (unknown origin)
# T1 sequence (Q9UPY5 whole entry): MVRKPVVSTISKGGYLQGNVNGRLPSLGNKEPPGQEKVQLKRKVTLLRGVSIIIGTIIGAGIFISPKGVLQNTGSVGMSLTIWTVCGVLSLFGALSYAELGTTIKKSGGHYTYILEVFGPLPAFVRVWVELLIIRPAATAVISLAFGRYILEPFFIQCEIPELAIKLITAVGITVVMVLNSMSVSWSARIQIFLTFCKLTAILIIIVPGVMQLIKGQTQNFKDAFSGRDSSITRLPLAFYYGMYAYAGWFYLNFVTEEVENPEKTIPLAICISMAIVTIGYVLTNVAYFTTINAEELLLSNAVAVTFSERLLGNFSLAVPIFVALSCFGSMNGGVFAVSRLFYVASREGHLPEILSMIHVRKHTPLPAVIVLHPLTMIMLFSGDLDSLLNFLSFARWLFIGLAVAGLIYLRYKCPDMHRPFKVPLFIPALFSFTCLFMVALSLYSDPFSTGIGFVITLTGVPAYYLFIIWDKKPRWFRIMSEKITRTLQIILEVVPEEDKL
# [3] = tested on: Plasmacytoid dendritic cell; assay: Inhibition of mTORC1/mTORC2 in CpG-A and IL-3-activated human plasmacytoid dendritic cells at 200 ng/mL assessed as decrease in IFN-alpha production; type: cell-based
# [4] = tested on: Plasmacytoid dendritic cell; assay: Inhibition of mTORC1/mTORC2 in CpG-A and IL-3-activated human plasmacytoid dendritic cells at 200 ng/mL assessed as decrease in SLC7A5 expression; type: cell-based
# [5] = tested on: Plasmacytoid dendritic cell; assay: Inhibition of mTORC1/mTORC2 in CpG-A and IL-3-activated human plasmacytoid dendritic cells at 200 ng/mL assessed as decrease in SLC3A2 expression; type: cell-based
# [6] = tested on: Plasmacytoid dendritic cell; assay: Inhibition of mTORC1/mTORC2 in CpG-A and IL-3-activated human plasmacytoid dendritic cells at 200 ng/mL assessed as decrease in TNF production; type: cell-based
# [7] = tested on: Plasmacytoid dendritic cell; assay: Inhibition of mTORC1/mTORC2 in IL-3 and CpG-A-activated human plasmacytoid dendritic cells at 200 nM assessed as decrease in decrease in MYO1E/IFNA2 expression; type: cell-based
# [8] = tested on: Plasmacytoid dendritic cell; assay: Inhibition of mTORC1/mTORC2 in IL-3 and CpG-A-activated human plasmacytoid dendritic cells at 200 nM assessed as decrease in decrease in ENPP2/IFNA2 expression; type: cell-based
# [9] = target: T2, Cystine/glutamate transporter (Homo sapiens) (UniProt Q9UPY5); assay: Inhibition of XCT in CpG-A-activated human plasmacytoid dendritic cells at 1 uM assessed as decrease in IFN-alpha production; type: cell-based; details: Plasmacytoid dendritic cell
# T2 sequence (whole entry): T1 sequence (Q9UPY5 whole entry)
# [10] = target: T2, Cystine/glutamate transporter (Homo sapiens); assay: Inhibition of XCT in CpG-A-activated human plasmacytoid dendritic cells at 5 uM assessed as decrease in IFN-alpha production; type: cell-based; details: Plasmacytoid dendritic cell
# [11] = target: T2, Cystine/glutamate transporter (Homo sapiens); assay: Inhibition of XCT in CpG-A-activated human plasmacytoid dendritic cells at 10 uM assessed as decrease in ENPP2 expression; type: cell-based; details: Plasmacytoid dendritic cell
# [12] = target: T2, Cystine/glutamate transporter (Homo sapiens); assay: Inhibition of XCT in CpG-A-activated human plasmacytoid dendritic cells at 5 uM assessed as decrease in S6 phosphorylation; type: cell-based; details: Plasmacytoid dendritic cell
# [13] = target: T2, Cystine/glutamate transporter (Homo sapiens); assay: Inhibition of XCT in CpG-A-activated human plasmacytoid dendritic cells at 5 uM assessed as decrease in kynurenine uptake; type: cell-based; details: Plasmacytoid dendritic cell
# [14] = target: T2, Cystine/glutamate transporter (Homo sapiens); assay: Inhibition of XCT in CpG-A-activated human plasmacytoid dendritic cells at 1 uM assessed as decrease in TNF production; type: cell-based; details: Plasmacytoid dendritic cell
# [15] = target: T2, Cystine/glutamate transporter (Homo sapiens); assay: Inhibition of XCT in CpG-A-activated human plasmacytoid dendritic cells at 5 uM assessed as decrease in TNF production; type: cell-based; details: Plasmacytoid dendritic cell
# [16] = target: T2, Cystine/glutamate transporter (Homo sapiens); assay: Inhibition of XCT in CpG-A-activated human plasmacytoid dendritic cells at 10 uM assessed as decrease in MYO1E expression; type: cell-based; details: Plasmacytoid dendritic cell
# [17] = target: T2, Cystine/glutamate transporter (Homo sapiens); assay: Inhibition of XCT in CpG-A-activated human plasmacytoid dendritic cells at 25 to 100 uM assessed as decrease in TNF production in presence of 100 uM sulfasalazine; type: cell-based; details: Plasmacytoid dendritic cell, dose 25-100 µM
# [18] = target: T2, Cystine/glutamate transporter (Homo sapiens); assay: Inhibition of XCT in CpG-A-activated human plasmacytoid dendritic cells at 200 uM assessed as decrease in IFN-alpha production; type: cell-based; details: Plasmacytoid dendritic cell
# [19] = target: T2, Cystine/glutamate transporter (Homo sapiens); assay: Inhibition of XCT in CpG-A-activated human plasmacytoid dendritic cells at 200 uM assessed as decrease in ENPP2 expression; type: cell-based; details: Plasmacytoid dendritic cell
# [20] = target: T2, Cystine/glutamate transporter (Homo sapiens); assay: Inhibition of XCT in CpG-A-activated human plasmacytoid dendritic cells at 200 uM assessed as decrease in S6 phosphorylation; type: cell-based; details: Plasmacytoid dendritic cell
# [21] = target: Tyrosine-protein kinase JAK2 (Homo sapiens) (UniProt O60674); assay: Inhibition of JAK2 in CpG-A-activated human plasmacytoid dendritic cells at 100 uM assessed as decrease in TNF production in presence of 25 to 100 uM baricitinib; type: cell-based; details: Plasmacytoid dendritic cell
# Chain of Tyrosine-protein kinase JAK2 (Homo sapiens) (O60674 whole entry): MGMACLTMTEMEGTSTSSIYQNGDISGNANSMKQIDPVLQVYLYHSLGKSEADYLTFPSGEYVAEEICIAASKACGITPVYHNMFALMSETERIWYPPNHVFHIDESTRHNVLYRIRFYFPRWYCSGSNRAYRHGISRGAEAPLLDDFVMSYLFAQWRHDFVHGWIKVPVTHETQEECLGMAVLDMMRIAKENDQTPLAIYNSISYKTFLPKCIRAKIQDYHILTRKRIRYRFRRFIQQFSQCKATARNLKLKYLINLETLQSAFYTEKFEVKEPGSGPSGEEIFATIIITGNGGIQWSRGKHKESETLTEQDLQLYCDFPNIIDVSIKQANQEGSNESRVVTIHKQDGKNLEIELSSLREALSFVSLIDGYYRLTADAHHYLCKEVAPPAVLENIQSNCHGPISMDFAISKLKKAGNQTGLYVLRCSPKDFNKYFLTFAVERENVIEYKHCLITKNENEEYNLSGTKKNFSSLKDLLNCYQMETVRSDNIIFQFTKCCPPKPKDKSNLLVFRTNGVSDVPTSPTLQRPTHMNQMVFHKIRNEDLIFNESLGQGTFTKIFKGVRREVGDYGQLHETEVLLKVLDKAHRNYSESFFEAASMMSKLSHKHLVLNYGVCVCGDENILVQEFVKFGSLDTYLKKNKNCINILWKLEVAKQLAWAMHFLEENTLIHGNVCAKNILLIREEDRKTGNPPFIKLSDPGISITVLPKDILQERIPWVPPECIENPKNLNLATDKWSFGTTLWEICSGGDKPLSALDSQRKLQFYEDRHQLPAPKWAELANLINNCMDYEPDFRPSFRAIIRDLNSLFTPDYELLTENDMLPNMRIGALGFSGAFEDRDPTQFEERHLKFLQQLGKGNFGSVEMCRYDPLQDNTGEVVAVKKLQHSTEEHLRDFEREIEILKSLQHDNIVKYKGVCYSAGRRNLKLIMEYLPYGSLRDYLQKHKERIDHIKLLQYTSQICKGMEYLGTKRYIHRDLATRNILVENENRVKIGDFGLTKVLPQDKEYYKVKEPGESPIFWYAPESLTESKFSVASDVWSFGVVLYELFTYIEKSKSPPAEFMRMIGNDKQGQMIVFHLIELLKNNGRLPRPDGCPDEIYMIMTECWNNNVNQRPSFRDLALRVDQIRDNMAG
# [22] = target: T2, Cystine/glutamate transporter (Homo sapiens); assay: Inhibition of XCT in CpG-A-activated human plasmacytoid dendritic cells at 200 uM assessed as decrease in kynurenine uptake; type: cell-based; details: Plasmacytoid dendritic cell
# [23] = target: T2, Cystine/glutamate transporter (Homo sapiens); assay: Inhibition of XCT in CpG-A-activated human plasmacytoid dendritic cells at 200 uM assessed as decrease in MYO1E expression; type: cell-based; details: Plasmacytoid dendritic cell
# [24] = target: T2, Cystine/glutamate transporter (Homo sapiens); assay: Inhibition of XCT in CpG-A-activated human plasmacytoid dendritic cells at 200 uM assessed as decrease in TNF production; type: cell-based; details: Plasmacytoid dendritic cell
# [25] = target: T2, Cystine/glutamate transporter (Homo sapiens); assay: Inhibition of XCT in CpG-A-activated human plasmacytoid dendritic cells at 100 uM assessed as decrease in IFN-alpha production in presence of 25 to 100 uM baricitinib; type: cell-based; details: Plasmacytoid dendritic cell
smiles,measurement,setting,value
Cc1cc(Nc2nc(N[C@@H](C)c3ncc(F)cn3)ncc2Cl)[nH]n1,inhibition,[1],Active
Nc1c(/N=N/c2ccc(SSc3ccc(/N=N/c4cc(S(=O)(=O)O)c5ccccc5c4N)cc3)cc2)cc(S(=O)(=O)O)c2ccccc12,pIC50,[2],5.37
Nc1c(/N=N/c2ccc(Oc3ccccc3)cc2)cc(S(=O)(=O)O)c2ccccc12,pIC50,[2],4.85
Nc1c(/N=N/c2ccc(I)cc2)cc(S(=O)(=O)O)c2ccccc12,pIC50,[2],4.85
CCC(=O)N1CCN(c2ccc(-n3c(=O)ccc4cnc5ccc(-c6cnc7ccccc7c6)cc5c43)cc2C(F)(F)F)CC1,inhibition,[3],Active
same,inhibition,[4],Active
same,inhibition,[5],Active
same,inhibition,[6],Active
same,inhibition,[7],Active
same,inhibition,[1],Active
same,inhibition,[8],Active
Nc1c(/N=N/c2ccc(Br)cc2)cc(S(=O)(=O)O)c2ccccc12,pIC50,[2],4.60
CCOc1ccccc1-n1c(C(C)N2CCN(C(=O)COc3ccc(Cl)cc3)CC2)nc2ccccc2c1=O (stereo not given),inhibition,[9],Active
same,inhibition,[10],Active
same,inhibition,[11],Active
same,inhibition,[12],Active
same,inhibition,[13],Active
same,inhibition,[14],Active
same,inhibition,[15],Active
same,inhibition,[16],Active
CCS(=O)(=O)N1CC(CC#N)(n2cc(-c3ncnc4[nH]ccc34)cn2)C1,inhibition,[17],Active
O=C(O)c1cc(/N=N/c2ccc(S(=O)(=O)Nc3ccccn3)cc2)ccc1O [SULFASALAZINE],inhibition,[18],Active
same,inhibition,[19],Active
same,inhibition,[20],Active
same,inhibition,[21],Active
same,inhibition,[22],Active
same,inhibition,[23],Active
same,inhibition,[24],Active
same,pIC50,[2],4.98
same,inhibition,[25],Active
